What was measured:
Assay in all cases: relative viability (nuclei count vs DMSO), 5 days (fraction); higher = more cells survive
Erlotinib + Foretinib = compound: C#Cc1cccc(Nc2ncnc3cc(OCCOC)c(OCCOC)cc23)c1 [Erlotinib] + COc1cc2c(Oc3ccc(NC(=O)C4(C(=O)Nc5ccc(F)cc5)CC4)cc3F)ccnc2cc1OCCCN1CCOCC1 [Foretinib] (partner 0.25 µM)
Summary of the method: (§1)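 Lung cancer cell lines were seeded in 1536-well plates and dosed by pin tool the next day, with either a single drug or a fixed anchor-drug dose combined with five library-drug doses (not always all listed) spaced in √10 steps. Five days later, one step fixed the cells and stained their nuclei (final 0.05% Triton X-100, 1% formaldehyde, 1 ug/ml Hoechst), and nuclei were counted on 4× images. Relative viability is the nuclei count in treated wells divided by the count in vehicle wells, and each value is the median of duplicate plates.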

AT9283 + Bortezomib = compound: O=C(Nc1c[nH]nc1-c1nc2ccc(CN3CCOCC3)cc2[nH]1)NC1CC1 [AT9283] + CC(C)C[C@H](NC(=O)[C@H](Cc1ccccc1)NC(=O)c1cnccn1)B(O)O [Bortezomib] (partner 0.002 µM)
Summary of the method: as §1

Erlotinib + Palbociclib = compound: C#Cc1cccc(Nc2ncnc3cc(OCCOC)c(OCCOC)cc23)c1 [Erlotinib] + CC(=O)c1c(C)c2cnc(Nc3ccc(N4CCNCC4)cn3)nc2n(C2CCCC2)c1=O [Palbociclib] (partner 0.5 µM)
Summary of the method: as §1

Erlotinib + Pemetrexed = compound: C#Cc1cccc(Nc2ncnc3cc(OCCOC)c(OCCOC)cc23)c1 [Erlotinib] + Nc1nc2[nH]cc(CCc3ccc(C(=O)N[C@@H](CCC(=O)O)C(=O)O)cc3)c2c(=O)[nH]1 [Pemetrexed] (partner 0.2 µM)
Summary of the method: as §1

AT9283 + Tozasertib = compound: O=C(Nc1c[nH]nc1-c1nc2ccc(CN3CCOCC3)cc2[nH]1)NC1CC1 [AT9283] + Cc1cc(Nc2cc(N3CCN(C)CC3)nc(Sc3ccc(NC(=O)C4CC4)cc3)n2)n[nH]1 [Tozasertib] (partner 0.1 µM)
Summary of the method: as §1

| Cell Line | relative viability (Erlotinib + Foretinib; first compound 0.02 µM) | relative viability (Erlotinib + Foretinib; first compound 0.2 µM) | relative viability (Erlotinib + Foretinib; first compound 0.6325 µM) | relative viability (Erlotinib + Foretinib; first compound 2 µM) | relative viability (AT9283 + Bortezomib; first compound 0.003 µM) | relative viability (AT9283 + Bortezomib; first compound 0.03 µM) | relative viability (AT9283 + Bortezomib; first compound 0.09487 µM) | relative viability (AT9283 + Bortezomib; first compound 0.3 µM) | relative viability (Erlotinib + Palbociclib; first compound 0.02 µM) | relative viability (Erlotinib + Palbociclib; first compound 0.2 µM) | relative viability (Erlotinib + Palbociclib; first compound 0.6325 µM) | relative viability (Erlotinib + Palbociclib; first compound 2 µM) | relative viability (Erlotinib + Pemetrexed; first compound 0.02 µM) | relative viability (Erlotinib + Pemetrexed; first compound 0.2 µM) | relative viability (Erlotinib + Pemetrexed; first compound 0.6325 µM) | relative viability (Erlotinib + Pemetrexed; first compound 2 µM) | relative viability (AT9283 + Tozasertib; first compound 0.003 µM) | relative viability (AT9283 + Tozasertib; first compound 0.03 µM) | relative viability (AT9283 + Tozasertib; first compound 0.09487 µM) | relative viability (AT9283 + Tozasertib; first compound 0.3 µM) |
| --- | --- | --- | --- | --- | --- | --- | --- | --- | --- | --- | --- | --- | --- | --- | --- | --- | --- | --- | --- | --- |
| IA-LM | 1.31 | 1.12 | 1.19 | 1.03 | 0.748 | 0.367 | 0.112 | 0.0951 | – | – | – | – | – | – | – | – | – | – | – | – |
| LK-2 | 1.24 | 0.718 | 1.46 | 1.23 | – | – | – | – | 0.579 | 0.589 | 0.712 | 0.743 | 0.259 | 0.278 | 0.318 | 0.235 | 0.174 | 0.225 | 0.172 | 0.209 |
| NCI-H358 | 0.656 | 0.408 | 0.39 | 0.176 | – | – | – | – | 0.132 | 0.146 | 0.109 | 0.108 | 0.176 | 0.156 | 0.147 | 0.164 | 0.108 | 0.0953 | 0.107 | 0.0809 |
| NCI-H522 | – | – | – | – | – | – | – | – | 0.908 | 0.969 | 0.883 | 0.824 | 0.94 | 1.08 | 1.12 | 0.811 | 0.545 | 0.576 | 0.56 | 0.557 |
| NCI-H596 | 0.759 | 0.847 | 0.995 | 0.758 | 0.999 | 1.14 | 0.947 | 0.772 | – | – | – | – | 0.609 | 0.455 | 0.489 | 0.457 | 0.943 | 0.839 | 0.933 | 0.553 |
| NCI-H727 | 0.847 | 0.75 | 0.813 | 0.726 | 0.824 | 0.508 | 0.351 | 0.306 | 0.615 | 0.513 | 0.586 | 0.476 | – | – | – | – | 0.589 | 0.567 | 0.457 | 0.444 |
| NCI-H1299 | 1.11 | 1.08 | 1.16 | 1.07 | 1.07 | 1.02 | 0.437 | 0.395 | – | – | – | – | – | – | – | – | – | – | – | – |
| NCI-H1395 | 1.04 | 0.906 | 1.13 | 0.975 | – | – | – | – | 0.619 | 0.532 | 0.657 | 0.571 | 0.807 | 0.959 | 0.868 | 0.794 | 0.61 | 0.553 | 0.399 | 0.355 |
| NCI-H1563 | 0.979 | 0.836 | 0.955 | 0.951 | 0.859 | 0.79 | 0.822 | 0.703 | – | – | – | – | 0.659 | 0.83 | 0.92 | – | – | – | – | – |
| NCI-H1623 | 0.923 | 0.679 | 0.366 | 0.301 | – | – | – | – | – | – | – | – | – | – | – | – | 0.411 | 0.408 | 0.357 | 0.389 |
| NCI-H1648 | – | – | – | – | – | – | – | – | 0.337 | 0.277 | 0.293 | 0.272 | 0.759 | 0.707 | 0.629 | 0.66 | 0.456 | 0.343 | 0.329 | 0.258 |
| NCI-H1703 | 0.33 | 0.419 | 0.343 | 0.357 | 0.452 | 0.196 | 0.141 | 0.169 | – | – | – | – | – | – | – | – | – | – | – | – |
| NCI-H1792 | – | – | – | – | 0.918 | 0.985 | 0.961 | 0.701 | 0.612 | 0.541 | 0.639 | – | 1.05 | 0.629 | 1.02 | 0.51 | – | – | – | – |
| NCI-H1793 | 0.575 | 0.421 | 0.541 | 0.408 | – | – | – | – | 0.252 | 0.241 | 0.247 | 0.241 | 1.01 | 0.441 | 0.825 | 0.52 | 0.327 | 0.383 | 0.201 | 0.171 |
| NCI-H1944 | 0.833 | 0.54 | 0.579 | 0.56 | – | – | – | – | 0.331 | 0.242 | 0.264 | 0.231 | 0.586 | 0.506 | 0.536 | 0.358 | 0.256 | 0.257 | 0.23 | 0.224 |
| NCI-H2170 | 1.04 | 1.05 | 0.935 | 0.656 | – | – | – | – | 0.374 | 0.36 | 0.379 | 0.282 | 0.275 | 0.261 | 0.242 | 0.237 | 0.748 | 0.276 | 0.164 | 0.157 |
| NCI-H2342 | 1.08 | 0.899 | 0.932 | – | – | – | – | – | 0.469 | 0.439 | 0.457 | 0.591 | 0.707 | 0.822 | 0.715 | 0.583 | 0.555 | 0.453 | 0.403 | 0.344 |
| SK-MES-1 | 1.03 | 0.635 | – | 0.357 | – | – | – | – | 0.35 | 0.257 | 0.327 | 0.293 | 1.07 | 0.519 | 0.545 | 0.418 | 1 | 0.679 | 0.254 | 0.125 |
| SW 900 | 0.98 | 0.92 | 0.792 | 0.757 | – | – | – | – | 0.492 | 0.48 | 0.472 | 0.398 | 0.497 | 0.495 | 0.461 | 0.445 | 0.476 | 0.526 | 0.359 | 0.307 |
